Measurements from publication PMC11571109, “Covalent Inhibitors of S100A4 Block the Formation of a Pro-Metastasis Non-Muscle Myosin 2A Complex” (Journal of Medicinal Chemistry, 2024).
Values joined by “and” are separate entries in the source; they are usually repeats but may differ in a detail not shown here. Equal entries are not always repeated. Where two headings read alike, the source gives them in different places.

Experiments:
HeLa = assay: Cell proliferation assay (CellTiter-Glo), HeLa; type: cell-based; settings: Homo sapiens, 48 h, supplementary CSV
Description: (§1) To further characterize the potency of the phenylproline derivatives on cancer cells, their effect on proliferation has been measured on HeLa and A549 cell lines, which are known to express S100A4.[44],[45] A cell proliferation assay was performed by cultivating cells for 48 h in complete media with various concentrations of inhibitors, up to 30 μM. At the end of the treatment, luminescence was measured after the addition of the CellTiter-Glo reagent (Figure 7A).
(§2) The day before, cells were seeded in a white, cell-culture treated 384-well plates in complete high-glucose DMEM to reach a confluency of 25% on the day of the experiment. The next day, the medium was replaced by complete, high-glucose, phenol-red-free medium, and cells were incubated for 48 h in the presence of an inhibitor or DMSO as a control. Aliquots of the supernatant were harvested, diluted 100 times in 200 mM Tris-HCl, pH 7.3, 10% glycerol, and 1% BSA buffer, and used for cyctotoxicity measurement by using the LDH-Glo cytotoxicity assay kit (Promega). In parallel, the CellTiter-Glo (Promega) reagent was added to the cells to measure cell proliferation. Both experiments were done according to the manufacturer’s recommendations, and the luminescence was quantified using the FSX plate reader (Pherastar).

A549 = assay: Cell proliferation assay (CellTiter-Glo), A549; type: cell-based; settings: Homo sapiens, 48 h, supplementary CSV
Description: as §1, §2

[1] = Cytotoxicity assay (LDH-Glo), A549; type: cell-based; settings: human, A549 cells, supplementary CSV, read-out: A549 Cell toxicity IC50
Description: as §1, §2

[2] = GSH reactivity assay (LCMS); type: physicochemical; settings: 1 mM glutathione (GSH) in HEPES buffer, pH 7.5; read-out: GSH t1/2 (converted)
Description: GSH is the most abundant low molecular weight thiol compound in the cell. It protects cells from oxidative damage and the toxicity of xenobiotic electrophiles and maintains redox homeostasis.[43] We speculated that a robust and specific reaction of inhibitors would not be drastically affected by competitive cysteines in the reaction.
50 μM of each compound was incubated at room temperature with 1 mM GSH in 50 mM HEPES, 20 mM NaCl, pH 7.5, and 1.3% DMSO. At each time point, an aliquot was taken and analyzed by LCMS. The percentage of the compound remaining was determined by comparing the area of the peaks of the compound and the GSH adduct. The natural logarithm of the results was fitted to a linear regression, and t1/2 was calculated as t1/2 = ln(2)/–slope.

S100A11-AnII = target: T1, S100A11-AnII (Homo sapiens, UniProt P31949); assay: HTRF (TR-FRET) peptide displacement S100A11-AnII; type: binding; settings: supplementary CSV
T1 construct: made in house; host or cells: E. coli Rosetta (DE3); peptide from LifeTein
T1 sequence (P31949 1-105): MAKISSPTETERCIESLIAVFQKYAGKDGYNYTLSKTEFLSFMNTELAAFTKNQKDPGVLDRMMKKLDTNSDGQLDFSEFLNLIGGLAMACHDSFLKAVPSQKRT
Description: Table S4: Compound IDs and SMILES … S30 […]
(§3) Peptide displacement assay development
(§4) addition of an inhibitor.
(§5) Assay was done in 384-well
(§6) After 2 hours of incubation at
(§7) concentration range to avoid the saturation of the signal.

[3] = Aqueous solubility in PBS (pH 7.4); type: physicochemical; settings: for solubility: aqueous buffer, PBS pH 7.4, read-out: aq. solubility
Source text: (§8) Selected compounds were screened for aqueous solubility in PBS (pH 7.4), metabolic stability in mouse liver microsomes (MLM) as a measure of clearance, Log D, and permeability. ADME studies reported in this work were independently performed by WuXi AppTec (Shanghai, China). Raw data are provided upon request.

Log D = type: physicochemical
Source text: as §8

[4] = Cytotoxicity assay (LDH-Glo), HeLa; type: cell-based; settings: human, HeLa cells, supplementary CSV, read-out: HeLa Cell toxicity IC50
Description: as §1, §2

MDCK-MDR1 cell line = assay: Cell permeability MDR1-MDCK II; type: in vitro ADME
Source text: as §8

[5] = test system: P-glycoprotein (P-gp, MDR1); assay: Cell permeability MDR1-MDCK II; type: in vitro ADME; settings: dog
Source text: as §8

[6] = Metabolic stability in mouse liver microsomes (MLM); type: in vitro ADME; settings: for MLM, Cli / half-life: mouse liver microsomes; for half-life: read-out: MLM, T1/2
Source text: as §8

S100A4 [7] = target: T2, S100A4 (Homo sapiens, UniProt P26447); assay: Protein labeling detection by mass spectrometry, S100A4; settings: 10 μM S100A4, 100 μM inhibitor, 1 h
T2 sequence (P26447 whole entry): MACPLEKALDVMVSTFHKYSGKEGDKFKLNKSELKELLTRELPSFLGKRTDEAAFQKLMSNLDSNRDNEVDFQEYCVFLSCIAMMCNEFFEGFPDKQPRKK
Description: To confirm its mechanism of inhibition, we performed a protein labeling assay. S100A4 protein was incubated in the presence of BAY11–7082 and analyzed by mass spectrometry (Figure 1C).
The compounds and their activity on S100A4-NMII and S100A11-AnII are shown in Figure 2A,B. To investigate their covalent activity, we then performed a protein labeling assay by incubating S100A4 in the presence of the inhibitors in parallel.
The mixture was incubated for 1 h at room temperature in the dark and analyzed by mass spectrometry using a 1290 Infinity coupled to a 6530 Accurate-Mass Q-TOF LC/MS (Agilent Technologies). Results were analyzed using the Qualitative Analysis MassHunter Acquisition Data and the Bioconfirm software.

S100A4-NMII [8] = target: T3, S100A4-NMII (Homo sapiens, UniProt P26447); assay: cell-based
T3 sequence (P26447 whole entry): as above
Source text: First, we performed IC50 measurements of protein–protein interaction in the presence of inhibitors using NanoBret technology. Briefly, S100A4-HaloTag and NMII-NanoLuc were expressed in 293HEK cells to allow signal detection from donor (NanoLuc) and acceptor (HaLoTag) proximity upon S100A4-NMII interaction.
Assay development was done according to the NanoBRet-NanoGlo detection system manufacturer’s recommendations (Promega) by testing each combination of N- and C-termini of HaloTag and NanoLuc fusion constructs. 293HEK cells were seeded on 6-well plates in complete DMEM media and transfected 6 h later with S100A4-NanoLuc (1.8 μg) and NMII-HaloTag (0.2 μg) constructs using the JetPrime transfection reagent (Polyplus Transfection, Strasbourg, France). After an overnight incubation, cells were resuspended in phenol-red-free, 4% serum media in the presence of the HaloTag NanoBret 618 ligand or DMSO for control. […] NanoBret NanoGlo substrates were added to cells prior to reading the plate with the Pherastar FSX plate reader. The raw Nanobret ratio was calculated by dividing the acceptor emission value (618 nm) by the donor emission value (460 nm) for each sample. The mean NanoBret data were calculated by subtracting the background ratio (no acceptor control) from the sample ratio.

S100A4-NMII [9] = target: T3, S100A4-NMII; assay: HTRF (TR-FRET) peptide displacement S100A4-NMII (MPN peptide); type: binding; set-up: made in house; host or cells: E. coli Rosetta (DE3); peptide from LifeTein; settings: supplementary CSV
Description: as §3, §4, §5, §6, §7

P-gp (MDR1) = assay: Cell permeability MDR1-MDCK II; type: in vitro ADME; settings: dog
Source text: as §8

S100A2 = S100A2 (Homo sapiens, UniProt P29034); settings: read-out: IC50 S100A2 - TRTK peptide displacement; AlphaScreen, duplicate, 50 μM top FAC
S100A2, sequence (P29034 whole entry): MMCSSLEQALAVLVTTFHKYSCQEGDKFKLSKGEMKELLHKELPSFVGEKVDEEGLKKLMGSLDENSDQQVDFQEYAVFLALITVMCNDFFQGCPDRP
Description: (§9) As a starting point to discover new S100 inhibitors, we used a peptide-displacement assay based on the Amplified Luminescent Proximity Homogeneous Assay (AlphaScreen) of a His-tagged protein interacting with a biotinylated peptide and its ability to be disrupted by small molecule inhibitors of protein interactions.[31] We took advantage of the ability of several S100 proteins to interact with the TRTK-12 peptide.[32] The optimal experimental conditions were determined by performing a protein versus peptide titration for each protein. Serial dilutions of purified 6His-S100 protein (S100A2, S100A4, S100A5, or S100B) were mixed with a serial dilution of a biotinylated TRTK-12 peptide in the presence of 1 mM calcium to allow conformational changes and activation of S100 proteins. The protein–peptide ratio that allows the highest signal to background, without signal saturation, was chosen as the assay condition for each protein to perform the first screening campaign (Figure S1 and Table S1). An internal diversity library of 4 989 small molecules was screened at a single-dose of 50 μM in duplicate in a 384-well plate format. The four S100 protein screening experiments were performed in parallel. […] We also selected the hits based on their ability to show specificity for one protein; compounds showing 50% or more inhibition for other S100 proteins were not selected (Supporting Information).
(§10) A 4 989 compound library was screened using an Alpha-Screen assay. 6His-Tag-S100A2, -S100A4, -S100A5, and -S100B were used in combination with TRTK-Biotin peptide under conditions described previously. […] Twelve wells per plate were used as solvent controls and as a reference for inhibition calculation, which was calculated as inhibition (%) = (1 – (Fsample– Fbackground)/(Fsolvent – Fbackground)) × 100
(§11) The best hits from the single-shot experiment were tested for IC50 determination using the HTRF assay as described above. […] The percentage of inhibition was calculated as described above and was used for IC50 determination. […]

S100B = S100B (Homo sapiens, UniProt P04271); settings: read-out: IC50 S100B - TRTK peptide displacement; AlphaScreen, duplicate, 50 μM top FAC
S100B, sequence (P04271 whole entry): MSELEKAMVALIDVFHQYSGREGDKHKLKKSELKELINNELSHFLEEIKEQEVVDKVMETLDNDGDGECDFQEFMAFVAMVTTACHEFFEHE
Description: as §9, §10, §11

S100A5 = S100A5 (Homo sapiens, UniProt P33763); settings: read-out: IC50 S100A5 - TRTK peptide displacement; AlphaScreen, duplicate, 50 μM top FAC
S100A5, sequence (P33763 whole entry): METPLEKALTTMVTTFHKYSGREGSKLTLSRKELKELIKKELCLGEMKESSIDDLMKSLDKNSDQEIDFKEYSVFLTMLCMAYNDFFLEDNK
Description: as §9, §10, §11

S100A4 [10] = target: T2, S100A4; assay: biochemical
Description: As a starting point to discover new S100 inhibitors, we used a peptide-displacement assay based on the Amplified Luminescent Proximity Homogeneous Assay (AlphaScreen) of a His-tagged protein interacting with a biotinylated peptide and its ability to be disrupted by small molecule inhibitors of protein interactions.[31] We took advantage of the ability of several S100 proteins to interact with the TRTK-12 peptide.[32] The optimal experimental conditions were determined by performing a protein versus peptide titration for each protein. Serial dilutions of purified 6His-S100 protein (S100A2, S100A4, S100A5, or S100B) were mixed with a serial dilution of a biotinylated TRTK-12 peptide in the presence of 1 mM calcium to allow conformational changes and activation of S100 proteins. […]
A 4 989 compound library was screened using an Alpha-Screen assay. […] Twelve wells per plate were used as solvent controls and as a reference for inhibition calculation, which was calculated as inhibition (%) = (1 – (Fsample– Fbackground)/(Fsolvent – Fbackground)) × 100
as §11

[11] = MDCK-MDR1, A to B, read-out: MDR1-MDCK II, AB Papp
[12] = MDCK-MDR1, B to A, read-out: MDR1-MDCK II, BA Papp
[13] = read-out: S100A4 IC50 HTRF assay

O=C(NC1CCCc2ccccc21)[C@H]1C[C@H](c2ccccc2)CN1C(=O)CCl (stereo partly shown) [5b]
IC50 (HeLa): 2.6 µM | IC50 (A549): 22.1 µM | IC50 at 48 h [1]: 29.7 µM | half-life at 50 μM [2]: 5.7 h | IC50 (S100A11-AnII): > 30 µM | aqueous solubility (in words) [3]: good solubility | solubility [3]: 45.7 µg/mL and 115 µM | logD (Log D): 3.74 | IC50 at 48 h [4]: 29.9 µM | cell permeability MDCK-MDR1 (in words) (MDCK-MDR1 cell line): good permeability without efflux | Papp [5, 11]: 3.8 ×10⁻⁶ cm/s | Papp [5, 12]: 34.5 ×10⁻⁶ cm/s | MLM, Cli [6]: 778 μL/min/mg protein | half-life [6]: 2 min

CC(C)C[C@@H](NC(=O)[C@H]1C[C@H](c2ccccc2)CN1C(=O)CCl)c1nc2ccccc2[nH]1 [5c]
S100A4 covalent modification pattern (in words) (S100A4 [7]): single shifts | IC50 (HeLa): 4.5 µM | IC50 (A549): 11.9 µM | IC50 (S100A4-NMII [8]): 11.1 µM | IC50 at 48 h [1]: 37.7 µM | half-life at 50 μM [2]: 6.8 h | IC50 (S100A11-AnII): 36.8 µM | solubility [3]: 1.69 µg/mL and 3.73 µM | logD (Log D): 4.64 | IC50 at 48 h [4]: 29.8 µM | IC50 (S100A4-NMII [9]; S100A4 + 1mM GSH IC50 HTRF assay, 1 mM GSH): 1.57 µM | IC50 (S100A4-NMII [9]; [13]): 0.77 µM | Papp (P-gp (MDR1); [11]): 12.6 ×10⁻⁶ cm/s | Papp (P-gp (MDR1); [12]): 38.8 ×10⁻⁶ cm/s | microsomal stability MLM (in words) [6]: moderate MLM stability | MLM, Cli [6]: 209 μL/min/mg protein | half-life [6]: 7 min

CN1CCCC(NC(=O)[C@H]2C[C@H](c3ccccc3)CN2C(=O)CCl)C1=O (stereo partly shown) [5d]
IC50 (S100A11-AnII): > 30 µM | IC50 (S100A4-NMII [9]; [13]): 1.05 µM

O=C1Nc2ccccc2C1NC(=O)[C@H]1C[C@H](c2ccccc2)CN1C(=O)CCl (stereo partly shown) [5e]
IC50 (S100A11-AnII): > 30 µM | IC50 (S100A4-NMII [9]; [13]): 3.25 µM

COc1cccc(N2CC(NC(=O)[C@H]3C[C@H](c4ccccc4)CN3C(=O)CCl)CC2=O)c1 (stereo partly shown) [5f]
IC50 (S100A11-AnII): > 30 µM | IC50 (S100A4-NMII [9]; [13]): 4.75 µM

N#CCc1ccc(NC(=O)[C@H]2C[C@H](c3ccccc3)CN2C(=O)CCl)cc1 [5g]
IC50 (S100A11-AnII): > 30 µM | IC50 (S100A4-NMII [9]; [13]): 1.24 µM

Cc1ccc(S(=O)(=O)/C=C/C#N)cc1 [compound 1]
IC50 (S100A2): > 30 µM | IC50 (S100B): > 30 µM | IC50 (S100A5): > 30 µM | IC50 (S100A4 [10]): < 1 µM | IC50 (S100A4 [10]; read-out: IC50 S100A4 - TRTK peptide displacement, AlphaScreen, duplicate, 50 μM top FAC, 1 mM calcium): 1.23 µM

O=C(Nc1cccc(Cl)c1)[C@H]1C[C@H](c2ccccc2)CN1C(=O)CCl [compound 5]
IC50 (S100A11-AnII): 33.8 µM | IC50 (S100A4-NMII [9]; [13]): 7.4 µM
